ChEMBL document CHEMBL3044846, “Synthesis and structureactivity relationships of serotonin derivatives effect on -glucosidase inhibition” (Med Chem Res, 2012)
Activity calls are given as the source filed them. No cut-off for these calls is given here.

What was measured:
Alpha-glucosidase MAL62 [1] = target: T1, Alpha-glucosidase MAL62 (Saccharomyces cerevisiae, UniProt P07265); assay: Uncompetitive inhibition of yeast alpha-glucosidase by Lineweaver-Burk plot analysis
[2] = target: Alpha-glucosidase MAL62 (Saccharomyces cerevisiae) (UniProt P07265); assay: (§1) Inhibition of yeast alpha-glucosidase using p-nitrophenyl-alpha-D-glucopyranoside as substrate preincubated for 10 min before substrate addition and measured after 10 min by spectrophotometry
Chain of Alpha-glucosidase MAL62 (Saccharomyces cerevisiae) (P07265 whole entry): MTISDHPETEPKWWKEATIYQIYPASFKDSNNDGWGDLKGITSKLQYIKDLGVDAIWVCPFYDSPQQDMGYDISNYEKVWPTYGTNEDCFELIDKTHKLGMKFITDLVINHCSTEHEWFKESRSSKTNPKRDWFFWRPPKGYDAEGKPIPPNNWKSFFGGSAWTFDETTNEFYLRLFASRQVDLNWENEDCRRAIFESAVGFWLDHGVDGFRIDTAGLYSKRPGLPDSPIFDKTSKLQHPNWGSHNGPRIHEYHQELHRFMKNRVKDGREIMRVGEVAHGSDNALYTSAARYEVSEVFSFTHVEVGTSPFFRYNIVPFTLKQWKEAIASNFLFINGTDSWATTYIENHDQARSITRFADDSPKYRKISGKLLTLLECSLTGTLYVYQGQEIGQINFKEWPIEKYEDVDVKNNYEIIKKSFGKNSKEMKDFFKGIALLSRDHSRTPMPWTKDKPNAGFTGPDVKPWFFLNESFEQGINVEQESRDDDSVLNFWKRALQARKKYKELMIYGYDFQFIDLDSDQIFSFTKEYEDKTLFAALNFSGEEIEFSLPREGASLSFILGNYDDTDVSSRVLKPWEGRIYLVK

Alpha-glucosidase MAL62 [3] = target: T1, Alpha-glucosidase MAL62; assay: as §1
Alpha-glucosidase MAL62 [4] = target: T1, Alpha-glucosidase MAL62; assay: Mixed-type inhibition of yeast alpha-glucosidase by Lineweaver-Burk plot analysis
[5] = target: Alpha-glucosidase MAL62 (Saccharomyces cerevisiae) (UniProt P07265); assay: Inhibition of yeast alpha-glucosidase using p-nitrophenyl-alpha-D-glucopyranoside as substrate preincubated at 300 uM for 10 min before substrate addition and measured after 10 min by spectrophotometry
Alpha-glucosidase MAL62 [6] = target: T1, Alpha-glucosidase MAL62; assay: Competitive inhibition of yeast alpha-glucosidase by Dixon plot analysis
[7] = target: Alpha-glucosidase MAL62 (Saccharomyces cerevisiae) (UniProt P07265); assay: Competitive inhibition of yeast alpha-glucosidase by Lineweaver-Burk plot analysis

T1 sequence (P07265 whole entry): as above

| SMILES | inhibition [2] | IC50 (Alpha-glucosidase MAL62 [3]) [µM] | also measured |
| --- | --- | --- | --- |
| O=C(/C=C/c1ccc(O)cc1)NCCc1c[nH]c2ccc(O)cc12 [N-P-COUMAROYL SEROTONIN] | Dose-dependent effect | 47.2 | Ki (Alpha-glucosidase MAL62 [1]): 81.6 µM |
| COc1cc(/C=C/C(=O)NCCc2c[nH]c3ccc(O)cc23)ccc1O [N-FERULOYL SEROTONIN] | Dose-dependent effect | 99.8 | Ki (Alpha-glucosidase MAL62 [4]): 130 µM |
| O=C(/C=C/c1ccc(O)c(O)c1)NCCc1c[nH]c2ccc(O)cc12 [N-CAFFEOYLSEROTONIN] | Dose-dependent effect | 48.2 | Ki (Alpha-glucosidase MAL62 [1]): 64.4 µM |
| COc1ccc(/C=C/C(=O)NCCc2c[nH]c3ccc(O)cc23)cc1 [N-P-METHOXY CINNAMOYL SEROTONIN] | Dose-dependent effect | > 300 |  |
| O=C(CCc1ccc(O)c(O)c1)NCCc1c[nH]c2ccc(O)cc12 [N-DIHYDROCAFFEOYL SEROTONIN] |  | > 300 |  |
| OC[C@H]1NC[C@H](O)[C@@H](O)[C@@H]1O [DUVOGLUSTAT] |  | 278 |  |
| NCCc1c[nH]c2ccc(O)cc12 [SEROTONIN] |  | > 300 | inhibition [5]: 25.6% |
| O=C(O)/C=C/c1ccc(O)c(O)c1 [CAFFEIC ACID] |  | > 300 | inhibition [5]: 10.2% |
| COc1cc(/C=C/C(=O)NCCc2c[nH]c3ccc(O)cc23)cc(OC)c1O [N-SINAPOYL SEROTONIN] | Dose-dependent effect | 66.2 | Ki (Alpha-glucosidase MAL62 [4]): 111 µM |
| O=C(O)/C=C/c1ccc(O)cc1 [COUMARIC ACID] |  | > 300 | inhibition [5]: 4.9% |
| COc1cc(CCC(=O)NCCc2c[nH]c3ccc(O)cc23)cc(OC)c1O [N-DIHYDROSINAPOYL SEROTONIN] |  | > 300 |  |
| COc1cc(/C=C/C(=O)O)ccc1O [FERULATE] |  | > 300 |  |
| COc1cc(CCC(=O)NCCc2c[nH]c3ccc(O)cc23)ccc1O [N-DIHYDROFERULOYL SEROTONIN] |  | > 300 |  |
| O=C(O)/C=C/c1ccccc1 [CINNAMIC ACID] |  | > 300 | inhibition [5]: 4.5% |
| O=C(CCc1ccccc1)NCCc1c[nH]c2ccc(O)cc12 [N-DIHYDROCINNAMOYL SEROTONIN] |  | > 300 |  |
| O=C(/C=C/c1ccccc1)NCCc1c[nH]c2ccc(O)cc12 [N-CINNAMOYL SEROTONIN] | Dose-dependent effect | 80.8 | Ki (Alpha-glucosidase MAL62 [6]): 133 µM; inhibition [7]: Active |
| COc1ccc(/C=C/C(=O)NCCc2c[nH]c3ccc(O)cc23)cc1OC [N-3,4-DIMETHOXY CINNAMOYL SEROTONIN] | Dose-dependent effect | > 300 |  |
| O=C(CCc1ccc(O)cc1)NCCc1c[nH]c2ccc(O)cc12 [N-DIHYDRO-P-COUMAROYLSEROTONIN] |  | > 300 |  |
| COc1ccc(/C=C/C(=O)NCCc2c[nH]c3ccc(O)cc23)cc1O [N-ISOFERULOYL SEROTONIN] | Dose-dependent effect | > 300 |  |
| COc1cc(/C=C/C(=O)O)cc(OC)c1O [SINAPINATE] |  | 145 |  |
